Usually IC50 stands for the point on the concentration scale where inhibition reaches its midpoint.

In assay [1] the target is T1, angiotensin-converting enzyme (Oryctolagus cuniculus, UniProt P12822).
T1 sequence (P12822 34-1310): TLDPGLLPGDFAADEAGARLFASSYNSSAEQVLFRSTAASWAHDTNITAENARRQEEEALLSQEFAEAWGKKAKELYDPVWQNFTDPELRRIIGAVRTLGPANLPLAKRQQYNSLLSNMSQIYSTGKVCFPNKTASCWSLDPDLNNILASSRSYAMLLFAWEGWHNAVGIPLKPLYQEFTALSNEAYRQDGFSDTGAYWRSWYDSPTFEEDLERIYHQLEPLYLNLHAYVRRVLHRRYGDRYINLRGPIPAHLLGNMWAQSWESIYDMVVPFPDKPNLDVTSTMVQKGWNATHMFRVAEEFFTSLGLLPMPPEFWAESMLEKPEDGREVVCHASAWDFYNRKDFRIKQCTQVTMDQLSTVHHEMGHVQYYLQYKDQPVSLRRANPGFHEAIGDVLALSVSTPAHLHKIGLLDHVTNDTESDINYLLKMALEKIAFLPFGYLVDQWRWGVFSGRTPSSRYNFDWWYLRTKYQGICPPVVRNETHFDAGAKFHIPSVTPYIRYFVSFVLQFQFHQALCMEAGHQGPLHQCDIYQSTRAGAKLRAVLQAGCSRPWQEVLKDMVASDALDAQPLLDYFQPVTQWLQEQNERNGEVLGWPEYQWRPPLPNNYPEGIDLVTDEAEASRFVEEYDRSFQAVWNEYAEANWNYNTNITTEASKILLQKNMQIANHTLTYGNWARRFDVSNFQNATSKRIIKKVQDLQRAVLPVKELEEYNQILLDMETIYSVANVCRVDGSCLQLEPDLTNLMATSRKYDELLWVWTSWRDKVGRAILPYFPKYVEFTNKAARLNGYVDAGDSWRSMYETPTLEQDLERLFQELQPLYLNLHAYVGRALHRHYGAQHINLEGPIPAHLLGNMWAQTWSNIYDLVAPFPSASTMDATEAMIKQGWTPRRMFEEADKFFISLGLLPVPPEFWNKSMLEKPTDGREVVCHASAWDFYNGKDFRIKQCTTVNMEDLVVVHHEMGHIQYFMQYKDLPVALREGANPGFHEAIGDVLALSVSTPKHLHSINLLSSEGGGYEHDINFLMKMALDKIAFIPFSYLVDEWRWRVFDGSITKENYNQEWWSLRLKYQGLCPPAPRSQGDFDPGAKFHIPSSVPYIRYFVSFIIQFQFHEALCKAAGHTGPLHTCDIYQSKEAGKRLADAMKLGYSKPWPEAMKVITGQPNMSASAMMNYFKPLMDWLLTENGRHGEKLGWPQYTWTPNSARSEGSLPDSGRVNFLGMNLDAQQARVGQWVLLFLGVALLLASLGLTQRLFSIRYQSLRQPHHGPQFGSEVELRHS
Kind of assay: in vitro inhibition of the angiotensin-converting enzyme (hippuryl-histidyl-leucine substrate). In kind it is biochemical. As to conditions: pH 8.3, 30 minutes at 37° C., read-out: IC50, inhibiting ACE in vitro assay. The procedure:
(§1) In vitro testing is most appropriate for the free carboxylic acids of the invention. The test compound is dissolved in dimethyl sulfoxide, ethanol, or 0.25M sodium bicarbonate solution, and the solution is diluted with buffer to the desired concentration.
The buffer for the ACE assay is 300 mM NaCl, […] KH2 PO4 (pH 8.3). The reaction is initiated by the addition of 100 μl of hippuryl-histidyl-leucine (2 mg/ml) to tubes containing enzyme and drug in a volume of 150 μl and tubes are incubated for 30 minutes at 37° C. The reaction is terminated by the addition of 0.75 ml 0.6N NaOH. 100 μl of freshly prepared O-pthaldehyde solution (2 mg/ml in methanol) is added to the tubes, the contents are mixed and allowed to stand at room temperature. After 10 minutes, 100 μl of 6N HCl is added. The tubes are centrifuged and the supernatant optical density is read at 360 nm. The results are plotted against drug concentration to determine the IC50, i.e., the drug concentration which gives half the activity of the control sample containing no drug.

Assay [2] has as its target T2, neutral endopeptidase (NEP, EC 3.4.24.11) (Rattus norvegicus, UniProt P07861).
T2 construct: rat kidney cortex membranes; from tissue; host or cells: rat kidney cortex membranes
T2 sequence (P07861 1-750): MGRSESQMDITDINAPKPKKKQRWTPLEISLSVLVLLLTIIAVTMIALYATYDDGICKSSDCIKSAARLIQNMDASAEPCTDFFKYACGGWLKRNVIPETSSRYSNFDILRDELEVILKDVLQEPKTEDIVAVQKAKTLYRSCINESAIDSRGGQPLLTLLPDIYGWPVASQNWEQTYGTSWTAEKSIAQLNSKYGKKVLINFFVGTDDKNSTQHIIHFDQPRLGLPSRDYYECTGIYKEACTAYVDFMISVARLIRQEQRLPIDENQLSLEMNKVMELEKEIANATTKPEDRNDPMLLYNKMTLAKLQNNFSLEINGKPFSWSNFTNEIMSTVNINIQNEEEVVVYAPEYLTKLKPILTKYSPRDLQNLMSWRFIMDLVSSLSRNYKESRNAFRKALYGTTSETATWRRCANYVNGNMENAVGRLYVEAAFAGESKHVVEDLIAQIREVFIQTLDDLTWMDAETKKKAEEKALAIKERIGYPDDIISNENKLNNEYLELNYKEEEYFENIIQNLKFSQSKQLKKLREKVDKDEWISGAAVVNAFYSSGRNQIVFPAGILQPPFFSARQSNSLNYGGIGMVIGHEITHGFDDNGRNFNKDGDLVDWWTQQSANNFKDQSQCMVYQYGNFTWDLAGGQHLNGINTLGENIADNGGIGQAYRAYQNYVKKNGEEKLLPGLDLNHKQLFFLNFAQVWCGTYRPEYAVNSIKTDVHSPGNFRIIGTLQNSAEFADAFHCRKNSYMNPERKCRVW
Kind of assay: in vitro inhibition of neutral endopeptidase (GAAP in vitro assay). To be noted: rat kidney cortex membranes, 500 μM glutaryl-Ala-Ala-Phe-2-naphthylamide, pH 7.4, 10 minutes at 25° C. In kind it is biochemical. The procedure: as §1
The in vitro inhibition of neutral endopeptidase (NEP, EC 3.4.24.11) can be determined as follows:
Neutral endopeptidase 3.4.24.11 activity is determined by the hydrolysis of the substrate glutaryl-Ala-Ala-Phe-2-naphthylamide (GAAP) using a modified procedure of Orlowski and Wilk (1981). The incubation mixture (total volume 125 μl) contains 4.2 μg of protein (rat kidney cortex membranes prepared by method of Maeda et at, 1983), 50 mM tris buffer, pH 7.4 at 25° C., 500 μM substrate (final concentration), and leucine aminopeptidase M (2.5 μg). The mixture is incubated for 10 minutes at 25° C. and 100 μl of fast garnet (250 μg fast garnet/ml of 10% Tween 20 in 1M sodium acetate, pH 4.2) is added. Enzyme activity is measured spectrophotometrically at 540 nm. One unit of NEP 24.11 activity is defined as 1 nmol of 2-naphthylamine released per minute at 25° C. at pH 7.4. IC50 values are determined, i.e. the concentration of test compound required for 50% inhibition of the release of 2-naphthylamine.

Take `O=C(N[C@H]1CCc2cccc3c2N(C1=O)[C@H](C(=O)O)C3)[C@@H](CS)Cc1ccc(-c2ccccc2)cc1` [6(b), 5-[((S)-2-biphenyl-4-ylmethyl-3-mercapto-propionyl)-(S)-amino]-1,2,4,5,6,7-hexahydroazepino[3,2,1-hi]indole-4-one-2-(S)-carboxylic acid]: the 50% inhibitory concentration (IC50) in assay [1] is around 0.077 µM; in assay [2], around 0.015 µM.
Take `CC(C)[C@H](S)C(=O)N[C@H]1CCc2cccc3c2N(C1=O)[C@H](C(=O)O)C3` [5(a), 5-[((S)-2-mercapto-3-methylbutanoyl)-(S)-amino]-1,2,4,5,6,7-hexahydro-azepino[3,2,1-hi]indole-4-one-2-(S)-carboxylic acid]: in assay [1], the IC50 was around 0.03 µM.
As for `O=C(N[C@H]1CCc2cccc3c2N(C1=O)[C@H](C(=O)O)C3)[C@@H](S)Cc1ccccc1` [2(a), 5-[((S)-2-mercapto-3-phenylpropionyl)-(S)-amino]-1,2,4,5,6,7-hexahydroazepino[3,2,1-hi]indole-4-one-2-(S)-carboxylic acid], the values for the half-inhibitory concentration (IC50) in assay [1] and in assay [2] were around 0.03 µM and around 0.05 µM, respectively.

(Values after patent publication US5644055A, “Antihypertensive tricyclic azepine derivatives useful as inhibitors of enkephalinase and ACE” (Ciba-Geigy Corporation, priority 1995, dated 1997).)
